Results: patent publication US11040038B2, “Methods for treating diseases associated with abnormal ACVR1 expression and ACVR1 inhibitors for use in the same” (Sumitomo Dainippon Pharma Oncology, Inc., priority 2018, dated 2021)
Values joined by “and” are separate entries in the source; they are usually repeats but may differ in a detail not shown here. Identical values can stand only once. Like-named read-outs stand apart in the source and are kept apart here.

Assay: Pharmacokinetics and relative bioavailability after a single oral dose (two liquid formulations, powder in capsule)
Assay type: in vivo, male Beagle dogs
Description: The purpose of the study is to dose two suspension formulations of Compound 2 at two dose levels by gavage to Beagle dogs and to collect blood samples for the determination of plasma concentrations, derivation of pharmacokinetic parameters and to determine the relative bioavailability of the two suspension formulations. The pharmacokinetics of Compound 2 would be evaluated following oral administration in capsules and the relative bioavailability of this dosage form to the oral liquid formulations was determined.
This study involves the dosing of the test item by the oral route over three periods separated by a 7 days washout period as outlined in Table 43, Table 44, and Table 45. The third period of the study outlined in Table 45 is considered to be optional and will only be performed at the Sponsor's request. Prior to the day of dosing, food will be removed from the dogs at 4:00 pm and reintroduced 2 hrs after dosing.
For oral administration of the formulations, the test item was administered via a stomach tube followed by the administration of 10 mL of tap water. For oral administration of capsules, the capsule was placed on the back of the tongue to encourage swallowing followed by administration of 10 mL of tap water. The oral cavity was then be inspected to make sure the capsule was swallowed. The actual volume of dosing formulation administered will be calculated based on the animal's most recently scheduled body weight.
The pharmacokinetic parameters for Compound 2 in solution as Formulation #1 (Table 43) and Formulation #2 (Table 44) along with data for the dosing of Compound 2 powder in capsule (Table 45) are presented in Table 46.

[1] = Formulation #1 (Table 43), 2 mg/kg oral, male Beagle dogs, plasma, Mean
[2] = Formulation #1 (Table 43), 2 mg/kg oral, male Beagle dogs, plasma, individual dog, 2 mg/kg
[3] = Formulation #1 (Table 43), 5 mg/kg oral, male Beagle dogs, plasma, Mean
[4] = Formulation #1 (Table 43), 5 mg/kg oral, male Beagle dogs, plasma, individual dog, 5 mg/kg
[5] = Formulation #2 (Table 44), 2 mg/kg oral, male Beagle dogs, plasma, Mean
[6] = Formulation #2 (Table 44), 2 mg/kg oral, male Beagle dogs, plasma, individual dog, 2 mg/kg
[7] = Formulation #2 (Table 44), 5 mg/kg oral, male Beagle dogs, plasma, Mean
[8] = Formulation #2 (Table 44), 5 mg/kg oral, male Beagle dogs, plasma, individual dog, 5 mg/kg
[9] = Powder in Capsule (Table 45), 2 mg/kg oral, male Beagle dogs, plasma, Mean
[10] = Powder in Capsule (Table 45), 2 mg/kg oral, male Beagle dogs, plasma, individual dog, 2 mg/kg
[11] = Powder in Capsule (Table 45), 5 mg/kg oral, male Beagle dogs, plasma, Mean
[12] = Powder in Capsule (Table 45), 5 mg/kg oral, male Beagle dogs, plasma, individual dog, 5 mg/kg
[13] = male, Beagle, dog, plasma, po, 2 mg/kg, Formulation #1 (Table 43), 2 mg/kg oral, male Beagle dogs, Mean

Kel [1]: 0.124 h⁻¹
MRTobs [1]: 9.32 h
AUC0-TLast [2]: 87 ng·h/mL and 77 ng·h/mL
AUC0-∞ [2]: 92 ng·h/mL and 82 ng·h/mL
CL/F [2]: 367 mL/min/kg and 400 mL/min/kg
Cmax [2]: 8.69 ng/mL and 7.27 ng/mL
MRTobs [2]: 10.05 h and 8.64 h and 9.26 h
t1/2 [2]: 5.2 h
Kel [3]: 0.138 h⁻¹
MRTobs [3]: 8.71 h
AUC0-∞ [4]: 204 ng·h/mL and 475 ng·h/mL
CL/F [4]: 417 mL/min/kg and 183 mL/min/kg
MRTobs [4]: 9.72 h and 8.6 h and 7.82 h
t1/2 [4]: 5.1 h and 4.3 h
Kel [5]: 0.150 h⁻¹
MRTobs [5]: 8.49 h
AUC0-TLast [6]: 115 ng·h/mL and 44 ng·h/mL
CL/F [6]: 217 mL/min/kg and 283 mL/min/kg and 717 mL/min/kg
MRTobs [6]: 7.31 h and 9.2 h and 8.96 h
t1/2 [6]: 4.8 h and 5.5 h
Kel [7]: 0.142 h⁻¹
MRTobs [7]: 8.28 h
CL/F [8]: 517 mL/min/kg and 233 mL/min/kg and 567 mL/min/kg
MRTobs [8]: 8.44 h and 8.7 h and 7.71 h
t1/2 [8]: 4.9 h and 4.5 h
Kel [9]: 0.304 h⁻¹
MRTobs [9]: 5.23 h
AUC0-∞ [10]: 58 ng·h/mL and 122 ng·h/mL
CL/F [10]: 583 mL/min/kg and 267 mL/min/kg
Kel [10]: 0.293 h⁻¹ and 0.314 h⁻¹
MRTobs [10]: 5.15 h and 5.30 h
t1/2 [10]: 2.2 h
Kel [11]: 0.233 h⁻¹
MRTobs [11]: 6.44 h
AUC0-TLast [12]: 139 ng·h/mL and 107 ng·h/mL
AUC0-∞ [12]: 142 ng·h/mL and 122 ng·h/mL
CL/F [12]: 583 mL/min/kg and 683 mL/min/kg
MRTobs [12]: 5.79 h and 7.62 h and 5.92 h
t1/2 [12]: 3.8 h
time of appearance in the plasma post dosing (beagle dogs, oral, all formulations): ≤ 0.5 h
Cmax (male, Beagle, dog, plasma, po, 2 mg/kg, 2 mg/kg oral, range across Formulation #1, #2 and powder in capsules, read-out: mean Cmax): 6.78 to 14.9 ng/mL
AUC(0-inf) [13]: 74 ng·h/mL
Tmax [13]: 4.7 h
half-life [13]: 5.6 h
AUC(0-inf) (male, Beagle, dog, plasma, po, 2 mg/kg, Formulation #1 (Table 43), 2 mg/kg oral, male Beagle dogs, individual dog): 49 ng·h/mL
SMILES: COc1cc(Nc2nccc(Nc3cccnc3-c3ccccn3)n2)ccc1N1CCN(C)CC1 [Compound 2, N^4-(2,2′-bipyridin-3-yl)-N^2-(3-methoxy-4-(4-methylpiperazin-1-yl)phenyl)pyrimidine-2,4-diamine]
Kel [2]: 0.116 h⁻¹ and 0.133 h⁻¹ and 0.124 h⁻¹
AUC0-TLast [4]: 190 ng·h/mL and 453 ng·h/mL and 198 ng·h/mL
Cmax [4]: 15.51 ng/mL and 46.76 ng/mL and 21.15 ng/mL
Kel [4]: 0.115 h⁻¹ and 0.136 h⁻¹ and 0.162 h⁻¹
AUC0-∞ [6]: 148 ng·h/mL and 120 ng·h/mL and 47 ng·h/mL
Cmax [6]: 19.72 ng/mL and 10.43 ng/mL and 4.59 ng/mL
Kel [6]: 0.179 h⁻¹ and 0.145 h⁻¹ and 0.125 h⁻¹
AUC0-TLast [8]: 151 ng·h/mL and 342 ng·h/mL and 141 ng·h/mL
AUC0-∞ [8]: 159 ng·h/mL and 357 ng·h/mL and 146 ng·h/mL
Cmax [8]: 17.70 ng/mL and 34.08 ng/mL and 14.91 ng/mL
Kel [8]: 0.129 h⁻¹ and 0.142 h⁻¹ and 0.153 h⁻¹
AUC0-TLast [10]: 53 ng·h/mL and 49 ng·h/mL and 112 ng·h/mL
Cmax [10]: 9.55 ng/mL and 13.83 ng/mL and 21.31 ng/mL
Cmax [12]: 43.79 ng/mL and 14.66 ng/mL and 18.21 ng/mL
Kel [12]: 0.255 h⁻¹ and 0.183 h⁻¹ and 0.261 h⁻¹
